These results are taken from US12265087B2, “Olfactory receptor as microglia marker and use thereof” (DAEGU GYEONGBUK INSTITUTE OF SCIENCE AND TECHNOLOGY, priority 2019, dated 2025).

Each structure is given as a SMILES string.

For one test, the system named is primary microglia. In words: Boyden chamber chemotaxis of primary microglia. It counts as cell-based, mouse. The settings on record: 100, 300 and 500 μM. The procedure: In this example, microglia or astrocytes were primarily extracted from the cerebral cortex of E18.5 mouse embryos (Tamashiro et al., 2012), and cultured as described in Example 1. More specifically, the mouse embryonic cortex was collected, stored in a cold supernatant (#14170-112; Thermo Fisher Scientific), and pretreated in a 0.25% trypsin solution (#15090-046; Thermo Fisher Scientific) at 37° C. for 20 minutes. Afterward, cells were plated in a minimum nutrient medium supplemented with 10% FBS (#SH30919.03; Hyclone), 2 mM L-glutamine (#25030-081; Thermo Fisher Scientific), 0.04% glucose (#G7021; Sigma Aldrich), and 1% penicillin/streptomycin (#15140-122; Thermo Fisher Scientific), and filtered through a […] strainer (#352340; Thermo Fisher Scientific). The microglia were plated at a density of 1.2×10^7 cells in a T75 flask coated with poly-D-lysine (#P7280; Sigma Aldrich). […] Purities of the collected microglia and astrocytes were evaluated by qRT-PCR assay and immunocytochemistry using a marker gene and proteins such as Iba-1 and Gfap.
Chemotaxis was measured using a multi-well Boyden chamber. […] The migrated cells were counted under a light microscope in five randomly selected fixed […] fields (200×) using a scored eyepiece. […]

For the next test, the target named is T1, Olfr110 F104W mutation (Mus musculus, UniProt A2RT31, F104W).
T1 construct: Full-length odorant receptor genes from mouse and human genomic DNAs were amplified using appropriate primers; Lucy (N); Flag (N); Rho (N); expressed in transfected cells; host or cells: Hana3A cells
T1 sequence (A2RT31 1-317 F104W): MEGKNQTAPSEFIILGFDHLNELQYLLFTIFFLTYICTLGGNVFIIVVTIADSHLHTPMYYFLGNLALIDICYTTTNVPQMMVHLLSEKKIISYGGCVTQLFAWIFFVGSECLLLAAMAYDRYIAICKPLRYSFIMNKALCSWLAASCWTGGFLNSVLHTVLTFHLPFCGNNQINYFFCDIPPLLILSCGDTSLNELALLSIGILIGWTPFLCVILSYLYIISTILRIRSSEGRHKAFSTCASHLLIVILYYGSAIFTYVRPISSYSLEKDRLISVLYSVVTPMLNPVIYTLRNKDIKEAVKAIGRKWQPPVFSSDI
In words: Luciferase assay with site-directed Olfr110 mutants. It counts as cell-based. The settings on record: 2-PF treatment. From the text: Specific mutant vectors of the Olfr110 structure were generated using PfuUltra High-Fidelity DNA polymerase (#600380; Agilent Technologies). All mutant vectors (F102W; F104W; Y252F; Y259F; F102W/F104W; Y252F/Y259F; F102W/Y252F/Y259F; F104W/Y252F/Y259F; F102W/F104W/Y252F/Y259F) were sequenced in forward and reverse directions (Macrogen).

As for `CCCCCc1ccco1` [2-PF, 2-pentylfuran], the chemotaxis result with primary microglia was “significantly increased in a concentration-dependent manner”. The “luciferase activity of Olfr110 F104W mutant” value on Olfr110 F104W mutation is listed as “completely lost”.
